PubChem BioAssay (NCI)
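Tested at 5 concentrations; 48 h exposure; 96-well plates; endpoints linearly interpolated, else capped at highest concentration. GI50 = concentration required for 50% inhibition of growth. TGI marks complete inhibition of growth.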

Legend:
Test in all cases: NCI anticancer screen, dose series, 48 h
IGROV1 ovarian = system: IGROV1 ovarian
HS 578T breast = system: HS 578T breast
MALME-3M melanoma = system: MALME-3M melanoma
UO-31 renal = system: UO-31 renal
HL-60(TB) leukemia = system: HL-60(TB) leukemia
A549 NSCLC = system: A549 NSCLC
SF-295 CNS = system: SF-295 CNS
SK-OV-3 ovarian = system: SK-OV-3 ovarian
SF-268 CNS = system: SF-268 CNS
NCI-H226 lung = system: NCI-H226 lung

SMILES | TGI (IGROV1 ovarian) [µM] | TGI (HS 578T breast) [µM] | TGI (MALME-3M melanoma) [µM] | TGI (UO-31 renal) [µM] | TGI (HL-60(TB) leukemia) [µM] | TGI (A549 NSCLC) [µM] | TGI (SF-295 CNS) [µM] | TGI (SK-OV-3 ovarian) [µM] | TGI (SF-268 CNS) [µM] | TGI (NCI-H226 lung) [µM] | GI50 (IGROV1 ovarian) [µM] | GI50 (HS 578T breast) [µM] | GI50 (MALME-3M melanoma) [µM] | GI50 (UO-31 renal) [nM] | GI50 (HL-60(TB) leukemia) [µM] | GI50 (A549 NSCLC) [µM] | GI50 (SF-295 CNS) [nM] | GI50 (SK-OV-3 ovarian) [µM] | GI50 (SF-268 CNS) [µM] | GI50 (NCI-H226 lung) [µM]
O=[N+]([O-])/C=C/c1cn(CCCCCn2cc(/C=C/[N+](=O)[O-])c3ccccc32)c2ccccc12 | 5.81 | 7.99 | 5.95 | 9.78 | 2.5 | 11.7 | > 43.9 | > 93.5 | 15.6 | 4.36 |  |  |  |  |  |  |  |  |  | 
CNc1ccc(Cl)cc1S(=O)(=O)c1ccccc1[N+](=O)[O-] | > 100 | > 100 | > 100 | > 100 | > 100 | > 100 | > 100 | > 100 | > 100 | > 100 |  |  |  |  |  |  |  |  |  | 
c1ccc([P+](c2ccccc2)(c2ccccc2)c2ccc([P+](c3ccccc3)(c3ccccc3)c3ccccc3)cc2)cc1 | > 100 | > 100 | > 100 | > 100 | > 100 | > 100 | > 100 | > 100 | > 100 | > 100 |  |  |  |  |  |  |  |  |  | 
O=S(=O)(O)C1CCC(O)C2[N-]CCCC21.O=S(=O)(O)C1CCC(O)C2[N-]CCCC21.[Zn+2] (centres undefined) | > 100 | > 100 | > 100 | > 100 | 51 | > 100 | > 100 | > 100 | > 100 | > 100 |  |  |  |  |  |  |  |  |  | 
COC1=CC(=O)C2=C(C1=O)[C@H]1CC[C@]3(C)[C@@H](OC(C)=O)CC[C@H]3[C@@H]1CC2 | > 100 | > 100 | 59 | > 100 | 40.4 | > 100 | > 100 | > 100 | > 100 | > 100 |  |  |  |  |  |  |  |  |  | 
CC(C)(C)OC(=O)N1CCc2c(n(C/C=C/c3ccccc3)[nH]c2=O)C1 | > 100 | > 100 | > 100 | > 100 | > 100 | > 100 | > 100 | > 100 | > 100 | > 100 |  |  |  |  |  |  |  |  |  | 
CC/C(Cl)=N\OC(=O)Nc1ccc(F)cc1F | 31.9 | > 69.5 | 12 | 29.4 | 4.31 | 39.8 | > 60 | 37.4 | > 57.7 | 34.2 |  |  |  |  |  |  |  |  |  | 
COC(=O)c1ccc(/C=C2\CCc3ccccc3C2=O)cc1 | > 100 | > 100 | > 100 | > 100 | > 100 | > 100 | > 100 | > 100 | > 100 | > 100 |  |  |  |  |  |  |  |  |  | 
CC1(C)CCC2(C(=O)OC3OC(CO)C(O)C(O)C3O)CCC3(CO)C(=CCC4C5(C)CC(O)C(O)C(C)(C(=O)OC6OC(CO)C(O)C(O)C6O)C5CCC43C)C2C1 (centres undefined) | > 100 | > 100 | > 100 | > 100 | > 100 | > 100 | > 100 | > 100 | > 100 | > 100 |  |  |  |  |  |  |  |  |  | 
CC(C)CCCC(C)[C@H]1CC[C@H]2N=C(Nc3ccccc3)CCC[C@]12C (some centres undefined) | 3.34 | 5.81 | 6.39 | 3.12 | 4.7 | 14.5 | 3.1 | 4.11 | 7.17 | 3.72 |  |  |  |  |  |  |  |  |  | 
CCOC(=O)/C(C#N)=C/N(CC)/N=C/c1ccccc1 | > 100 | > 100 | > 100 | > 100 | > 100 | > 100 | > 100 | > 100 | > 100 | > 100 |  |  |  |  |  |  |  |  |  | 
Oc1[nH]c2ccccc2c1/C=c1/cc2c(c(-c3ccc(C(F)(F)F)cc3)n1)=Nc1ccccc1-2 | 28.8 | 69.9 | 27.4 | 20.7 | 9.25 | 28.8 | 28.4 | 56.6 | 38.8 | > 100 | 8.25 | 10.3 | 9.14 | 2550 | 3.41 | 4.79 | 2990 | 13.8 | 10.3 | 36.4
CC1=C2C(=O)c3ccccc3C(=O)[C@H]2C[C@@H](N2CCCCCC2=O)O1 | 30.7 | > 100 | 25.5 | 33.3 | 46.3 | 39.7 | 35.6 | > 100 | 36.3 | > 100 |  |  |  |  |  |  |  |  |  | 
Cn1c(=O)sc2cc(C(=S)N3CCOCC3)ccc21 | > 100 | > 100 | > 100 | > 100 | > 100 | > 100 | > 100 | > 100 | > 100 | > 100 |  |  |  |  |  |  |  |  |  | 
CC(C)=CCC[C@@H](C)c1c2[nH]c3ccccc3sc-2c(C)c(=O)c1=O | 26.3 | > 48.9 | > 29.1 | 14.4 | 5.02 | 35.6 | 40.6 | > 75 | > 35.3 | 11.1 |  |  |  |  |  |  |  |  |  | 
CC(=O)c1ccc(NC(=O)CSc2nc(C)nc3c2sc(=S)n3-c2ccccc2)cc1 | > 3.16 | > 3.16 | > 3.16 | > 10 | > 3.16 | > 3.16 | > 3.16 | > 3.16 | > 3.16 | > 3.16 |  |  |  |  |  |  |  |  |  | 
Nc1ncc(/C=N/O)c(NCC2(CO)CC(CCc3ccccc3)C2)n1 (centres undefined) | 31.2 | > 100 | 25.3 | 26.9 | 28 | 25.6 | 22.7 |  | > 100 | 40.1 |  |  |  |  |  |  |  |  |  | 
